Columns and labels:
late watergrass [1] = assay: Test Example 2: herbicidal activity, application during weed generation under submerged conditions (Table 17, symbol A); assay type: in vivo, late watergrass (Echinochloa oryzicola); settings: AAH 320 g/ha; application during weed generation, submerged conditions
How it was run: (§1)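 Mixed weed seedlings in alluvial soil under a 4 cm water layer, greenhouse-grown at 25–30° C. Compound given as a diluted emulsion into the floodwater at the 1–2 leaf stage; response graded after three weeks.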

lambsquarters [2] = assay: Test Example 5: herbicidal effect by foliage application, plastic box (Table 20, symbol O); assay type: in vivo, lambsquarters (Chenopodium album); settings: foliage application, 320 g/ha, three weeks after application
How it was run: (§2)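 Plants sown in sterilized diluvial soil and grown 14 days in a greenhouse at 25° C to 30° C, then sprayed on the foliage with the compound's emulsion diluted in water to a predetermined herbicide amount. Injury to weeds and crops scored three weeks after application on a visual rating scale.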

Japanese bulrush [3] = assay: Test Example 2: herbicidal activity, application during weed generation under submerged conditions (Table 17, symbol B); assay type: in vivo, Japanese bulrush (Schoenoplectus juncoides); settings: AAH 320 g/ha; application during weed generation, submerged conditions
How it was run: as §1

barnyard grass [4] = assay: Test Example 4: herbicidal effect by soil treatment (Table 19, symbol H); assay type: in vivo, barnyard grass (Echinochloa crus-galli); settings: amount of applied herbicide 320 g/ha
How it was run: (§3)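 Seeds were sown in sterilized diluvial soil and covered with about 1.5 cm of soil. An emulsion formulation diluted with water to a predetermined herbicide amount was sprayed evenly onto the soil surface. Plants grew in a greenhouse at 25° C. to 30° C., and the effect was scored three weeks after application using criteria from an earlier test.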

oval-leafed pondweed [5] = assay: Test Example 1: herbicidal activity, application before weed generation under submerged conditions (Table 16, symbol C); assay type: in vivo, oval-leafed pondweed (Monochoria vaginalis); settings: amount of applied herbicide 320 g/ha
How it was run: (§4)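 Emulsion formulation, water-diluted to set dose, was put onto the flooded surface (4 cm depth, alluvial soil) the same day weeds were sown and 2.5-leaf rice transplanted. After 3 weeks at 25-30 °C under glass, each species was rated 0 (≤5% kill) to 5 (≥90% kill).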

velvetleaf [6] = assay: Test Example 4: herbicidal effect by soil treatment (Table 19, symbol M); assay type: in vivo, velvetleaf (Abutilon theophrasti); settings: amount of applied herbicide 320 g/ha
How it was run: as §3

velvetleaf [7] = assay: Test Example 5: herbicidal effect by foliage application, plastic box (Table 20, symbol M); assay type: in vivo, velvetleaf (Abutilon theophrasti); settings: foliage application, 320 g/ha, three weeks after application
How it was run: as §2

lambsquarters [8] = assay: Test Example 4: herbicidal effect by soil treatment (Table 19, symbol O); assay type: in vivo, lambsquarters (Chenopodium album); settings: amount of applied herbicide 320 g/ha
How it was run: as §3

southern crabgrass [9] = assay: Test Example 5: herbicidal effect by foliage application, plastic box (Table 20, symbol F); assay type: in vivo, southern crabgrass (Digitaria ciliaris); settings: foliage application, 320 g/ha, three weeks after application
How it was run: as §2

redroot pigweed [10] = assay: Test Example 4: herbicidal effect by soil treatment (Table 19, symbol N); assay type: in vivo, redroot pigweed (Amaranthus retroflexus); settings: amount of applied herbicide 320 g/ha
How it was run: as §3

Japanese bulrush [11] = assay: Test Example 1: herbicidal activity, application before weed generation under submerged conditions (Table 16, symbol B); assay type: in vivo, Japanese bulrush (Schoenoplectus juncoides); settings: amount of applied herbicide 320 g/ha
How it was run: as §4

southern crabgrass [12] = assay: Test Example 4: herbicidal effect by soil treatment (Table 19, symbol F); assay type: in vivo, southern crabgrass (Digitaria ciliaris); settings: amount of applied herbicide 320 g/ha
How it was run: as §3

rice flat sedge = assay: Test Example 3: herbicidal effect by foliage application, Wagner pot (Table 18, symbol E); assay type: in vivo, rice flat sedge (Cyperus iria); settings: amount of applied herbicide 320 g/ha
How it was run: (§5)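 Plants were sown in alluvial soil held under 0.1–0.5 cm standing water and grown 14 days in a greenhouse at 25–30 °C. An emulsifiable formulation, water-diluted to the set dose, was then sprayed onto the foliage, and effects were scored three weeks later using previously defined criteria.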

redroot pigweed [13] = assay: Test Example 5: herbicidal effect by foliage application, plastic box (Table 20, symbol N); assay type: in vivo, redroot pigweed (Amaranthus retroflexus); settings: foliage application, 320 g/ha, three weeks after application
How it was run: as §2

green foxtail [14] = assay: Test Example 4: herbicidal effect by soil treatment (Table 19, symbol G); assay type: in vivo, green foxtail (Setaria viridis); settings: amount of applied herbicide 320 g/ha
How it was run: as §3

barnyard grass [15] = assay: Test Example 5: herbicidal effect by foliage application, plastic box (Table 20, symbol H); assay type: in vivo, barnyard grass (Echinochloa crus-galli); settings: foliage application, 320 g/ha, three weeks after application
How it was run: as §2

barnyard grass [16] = assay: Test Example 3: herbicidal effect by foliage application, Wagner pot (Table 18, symbol H); assay type: in vivo, barnyard grass (Echinochloa crus-galli); settings: amount of applied herbicide 320 g/ha
How it was run: as §5

late watergrass [17] = assay: Test Example 1: herbicidal activity, application before weed generation under submerged conditions (Table 16, symbol A); assay type: in vivo, late watergrass (Echinochloa oryzicola); settings: amount of applied herbicide 320 g/ha
How it was run: as §4

green foxtail [18] = assay: Test Example 5: herbicidal effect by foliage application, plastic box (Table 20, symbol G); assay type: in vivo, green foxtail (Setaria viridis); settings: foliage application, 320 g/ha, three weeks after application
How it was run: as §2

oval-leafed pondweed [19] = assay: Test Example 2: herbicidal activity, application during weed generation under submerged conditions (Table 17, symbol C); assay type: in vivo, oval-leafed pondweed (Monochoria vaginalis); settings: AAH 320 g/ha; application during weed generation, submerged conditions
How it was run: as §1

Chinese sprangletop = assay: Test Example 3: herbicidal effect by foliage application, Wagner pot (Table 18, symbol D); assay type: in vivo, chinese sprangletop (Leptochloa chinensis); settings: amount of applied herbicide 320 g/ha
How it was run: as §5

SMILES	herbicidal effect rating, A: late watergrass (late watergrass [1])	O: lambsquarters, herbicidal effect grade (lambsquarters [2])	herbicidal effect rating, B: Japanese bulrush (Japanese bulrush [3])	herbicidal effect, H: barnyard grass (barnyard grass [4])	Herbicidal effect, C: oval-leafed pondweed (oval-leafed pondweed [5])	herbicidal effect, M: velvetleaf (velvetleaf [6])	M: velvetleaf, herbicidal effect grade (velvetleaf [7])	herbicidal effect, O: lambsquarters (lambsquarters [8])	F: southern crabgrass, herbicidal effect grade (southern crabgrass [9])	herbicidal effect, N: redroot pigweed (redroot pigweed [10])	Herbicidal effect, B: Japanese bulrush (Japanese bulrush [11])	herbicidal effect, F: southern crabgrass (southern crabgrass [12])	N: redroot pigweed, herbicidal effect grade (redroot pigweed [13])	herbicidal effect, G: green foxtail (green foxtail [14])	H: barnyard grass, herbicidal effect grade (barnyard grass [15])	herbicidal effect on H: barnyard grass (barnyard grass [16])	Herbicidal effect, A: late watergrass (late watergrass [17])	G: green foxtail, herbicidal effect grade (green foxtail [18])	herbicidal effect rating, C: oval-leafed pondweed (oval-leafed pondweed [19])	herbicidal effect on D: Chinese sprangletop (Chinese sprangletop)	also measured
CC(COc1ccc(-c2sc3ccc(F)cc3c2-c2c(O)c(C)nn(C)c2=O)cc1)=NO [2-453]	3 (Herbicidal rate of 40% or more and less than 70%)	5 (Herbicidal rate of 90% or more (almost completely withered))	4 (Herbicidal rate of 70% or more and less than 90%)	5 (Herbicidal rate of 90% or more (almost completely withered))	3 (Herbicidal rate of 40% or more and less than 70%)	5 (Herbicidal rate of 90% or more (almost completely withered))	5 (Herbicidal rate of 90% or more (almost completely withered))	5 (Herbicidal rate of 90% or more (almost completely withered))	5 (Herbicidal rate of 90% or more (almost completely withered))	5 (Herbicidal rate of 90% or more (almost completely withered))	3 (Herbicidal rate of 40% or more and less than 70%)	5 (Herbicidal rate of 90% or more (almost completely withered))	5 (Herbicidal rate of 90% or more (almost completely withered))	5 (Herbicidal rate of 90% or more (almost completely withered))	5 (Herbicidal rate of 90% or more (almost completely withered))	5 (Herbicidal rate of 90% or more (almost completely withered))	3 (Herbicidal rate of 40% or more and less than 70%)	5 (Herbicidal rate of 90% or more (almost completely withered))	4 (Herbicidal rate of 70% or more and less than 90%)	3 (Herbicidal rate of 40% or more and less than 70%)	herbicidal effect on E: rice flat sedge (rice flat sedge): 2 (Herbicidal rate of 20% or more and less than 40%)
COCCS(=O)(=O)c1ccc(-c2sc3ccc(F)cc3c2-c2c(O)c(C)nn(C)c2=O)cc1 [2-455]	3 (Herbicidal rate of 40% or more and less than 70%)	3 (Herbicidal rate of 40% or more and less than 70%)	0 (Herbicidal rate of 5% or less (almost no effect))	0 (Herbicidal rate of 5% or less (almost no effect))	0 (Herbicidal rate of 5% or less (almost no effect))	1 (Herbicidal rate of 5% or more and less than 20%)	4 (Herbicidal rate of 70% or more and less than 90%)	3 (Herbicidal rate of 40% or more and less than 70%)	4 (Herbicidal rate of 70% or more and less than 90%)	4 (Herbicidal rate of 70% or more and less than 90%)	0 (Herbicidal rate of 5% or less (almost no effect))	4 (Herbicidal rate of 70% or more and less than 90%)	5 (Herbicidal rate of 90% or more (almost completely withered))	4 (Herbicidal rate of 70% or more and less than 90%)	4 (Herbicidal rate of 70% or more and less than 90%)	5 (Herbicidal rate of 90% or more (almost completely withered))	3 (Herbicidal rate of 40% or more and less than 70%)	3 (Herbicidal rate of 40% or more and less than 70%)	0 (Herbicidal rate of 5% or less (almost no effect))	2 (Herbicidal rate of 20% or more and less than 40%)	herbicidal effect on E: rice flat sedge (rice flat sedge): 0 (Herbicidal rate of 5% or less (almost no effect))
COCCOc1ccc(-c2sc3ccc(F)cc3c2-c2c(O)cnn(C)c2=O)cc1 [2-441]	3 (Herbicidal rate of 40% or more and less than 70%)	5 (Herbicidal rate of 90% or more (almost completely withered))	0 (Herbicidal rate of 5% or less (almost no effect))	0 (Herbicidal rate of 5% or less (almost no effect))	3 (Herbicidal rate of 40% or more and less than 70%)	1 (Herbicidal rate of 5% or more and less than 20%)	5 (Herbicidal rate of 90% or more (almost completely withered))	4 (Herbicidal rate of 70% or more and less than 90%)	4 (Herbicidal rate of 70% or more and less than 90%)	4 (Herbicidal rate of 70% or more and less than 90%)	3 (Herbicidal rate of 40% or more and less than 70%)	0 (Herbicidal rate of 5% or less (almost no effect))	5 (Herbicidal rate of 90% or more (almost completely withered))	0 (Herbicidal rate of 5% or less (almost no effect))	5 (Herbicidal rate of 90% or more (almost completely withered))	5 (Herbicidal rate of 90% or more (almost completely withered))	3 (Herbicidal rate of 40% or more and less than 70%)	5 (Herbicidal rate of 90% or more (almost completely withered))	0 (Herbicidal rate of 5% or less (almost no effect))	0 (Herbicidal rate of 5% or less (almost no effect))	–
